Test results reported in PMC9268515, “UGT1A1 and UGT1A9 Are Responsible for Phase II Metabolism of Tectorigenin and Irigenin In Vitro” (Molecules, 2022).

Biological target: T1, UGT1A9 (Homo sapiens, UniProt O60656)
T1 construct: purchased BD Biosciences (Woburn, MA, USA)
T1 sequence (O60656 26-530): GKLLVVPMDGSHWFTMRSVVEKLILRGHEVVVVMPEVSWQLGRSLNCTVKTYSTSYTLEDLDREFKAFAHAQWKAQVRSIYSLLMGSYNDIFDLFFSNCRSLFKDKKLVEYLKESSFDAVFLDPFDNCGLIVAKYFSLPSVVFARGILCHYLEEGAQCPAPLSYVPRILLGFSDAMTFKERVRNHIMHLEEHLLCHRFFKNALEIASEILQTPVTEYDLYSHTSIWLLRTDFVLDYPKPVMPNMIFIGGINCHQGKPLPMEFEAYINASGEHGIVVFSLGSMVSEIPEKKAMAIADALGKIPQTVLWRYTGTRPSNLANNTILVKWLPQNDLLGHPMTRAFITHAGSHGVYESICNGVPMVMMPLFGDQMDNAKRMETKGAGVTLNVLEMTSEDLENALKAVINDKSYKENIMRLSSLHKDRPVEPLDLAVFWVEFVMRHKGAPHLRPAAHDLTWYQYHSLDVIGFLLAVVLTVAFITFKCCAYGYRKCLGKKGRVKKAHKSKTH
Experiment: Recombinant UGT reaction screening and enzyme kinetics, UGT1A9
Type: in vitro ADME
Conditions: recombinant UGT1A9 screening
Procedure: UGT reaction screening of tectorigenin and irigenin was conducted using nine commercially available human UGTs (UGT1A1/1A3/1A4/1A6/1A9/2B4/2B7/2B15/2B17). Furthermore, we studied the enzymatic kinetic characteristics of tectorigenin and irigenin using UGT1A1 and UGT1A9. Six concentrations of tectorigenin and irigenin (1, 3, 10, 30, 100, and 300 μM) were incubated in triplicate in order to obtain the enzyme kinetic characteristics of tectorigenin and irigenin glucuronide.
For both HLMs and UGTs, metabolic kinetic analysis was performed by fitting the data to the Michaelis-Menten model. The Km and Vmax of enzymes were calculated as follows:(3) V=Vmax×[S]/Km+[S], where [S] is the substrate concentration. All results were shown as the mean ± standard error (SE). Differences among different groups were compared using one-way analysis of variance. A p-value < 0.05 was considered statistically significant.

COc1c(O)cc2occ(-c3ccc(O)cc3)c(=O)c2c1O [Tectorigenin, 5,7,4′-trihydroxyl-6-methoxyl isoflavone]
Activity in glucuronidation of tectorigenin: highest activity
